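Following 48 hours of exposure in 96-well plates, responses at five concentrations were used to interpolate endpoints linearly. TGI: concentration producing complete growth inhibition.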
Tests used:
Assay in all cases: NCI anticancer screen, dose series, 48 h
786-0 renal = system: 786-0 renal
A498 renal = system: A498 renal
A549 NSCLC = system: A549 NSCLC
ACHN renal = system: ACHN renal
CAKI-1 renal = system: CAKI-1 renal
COLO 205 colon = system: COLO 205 colon
DLD-1 colon = system: DLD-1 colon
DMS 114 small cell lung = system: DMS 114 small cell lung
DMS 273 small cell lung = system: DMS 273 small cell lung
EKVX NSCLC = system: EKVX NSCLC
HCC-2998 colon = system: HCC-2998 colon
HCT-116 colon = system: HCT-116 colon
HCT-15 colon = system: HCT-15 colon
HOP-18 NSCLC = system: HOP-18 NSCLC
HOP-62 NSCLC = system: HOP-62 NSCLC
HOP-92 NSCLC = system: HOP-92 NSCLC
HT29 colon = system: HT29 colon
IGROV1 ovarian = system: IGROV1 ovarian
K-562 leukemia = system: K-562 leukemia
KM12 colon = system: KM12 colon
KM20L2 colon = system: KM20L2 colon
LOX IMVI melanoma = system: LOX IMVI melanoma
LXFL 529 NSCLC = system: LXFL 529 NSCLC
M14 melanoma = system: M14 melanoma
M19-MEL melanoma = system: M19-MEL melanoma
MALME-3M melanoma = system: MALME-3M melanoma
MOLT-4 leukemia = system: MOLT-4 leukemia
NCI-H226 lung = system: NCI-H226 lung
NCI-H23 lung = system: NCI-H23 lung
NCI-H460 lung = system: NCI-H460 lung
NCI-H522 lung = system: NCI-H522 lung
OVCAR-3 ovarian = system: OVCAR-3 ovarian
OVCAR-4 ovarian = system: OVCAR-4 ovarian
OVCAR-5 ovarian = system: OVCAR-5 ovarian
OVCAR-8 ovarian = system: OVCAR-8 ovarian
RPMI-8226 leukemia = system: RPMI-8226 leukemia
SF-268 CNS = system: SF-268 CNS
SF-295 CNS = system: SF-295 CNS
SF-539 CNS = system: SF-539 CNS
SK-MEL-2 melanoma = system: SK-MEL-2 melanoma
SK-MEL-28 melanoma = system: SK-MEL-28 melanoma
SK-MEL-5 melanoma = system: SK-MEL-5 melanoma
SK-OV-3 ovarian = system: SK-OV-3 ovarian
SN12C renal = system: SN12C renal
SNB-19 CNS = system: SNB-19 CNS
SNB-75 CNS = system: SNB-75 CNS
SNB-78 CNS = system: SNB-78 CNS
SR leukemia = system: SR leukemia
SW-620 colon = system: SW-620 colon
TK-10 renal = system: TK-10 renal
U251 CNS = system: U251 CNS
UACC-257 melanoma = system: UACC-257 melanoma
UACC-62 melanoma = system: UACC-62 melanoma
UO-31 renal = system: UO-31 renal
XF 498 CNS = system: XF 498 CNS
CCRF-CEM leukemia = system: CCRF-CEM leukemia
HL-60(TB) leukemia = system: HL-60(TB) leukemia
RXF 393 renal = system: RXF 393 renal
RXF-631 renal = system: RXF-631 renal

Cc1ccc(C2(O)CC(c3ccc([N+](=O)[O-])o3)=NN2C(=O)COc2ccc(Cl)cc2)cc1 (centres undefined)
TGI (786-0 renal): 18 µM | TGI (A498 renal): 22.2 µM | TGI (A549 NSCLC): 56.4 µM | TGI (ACHN renal): 43.1 µM | TGI (CAKI-1 renal): 67.5 µM | TGI (COLO 205 colon): 15.3 µM | TGI (DLD-1 colon): > 100 µM | TGI (DMS 114 small cell lung): 83.8 µM | TGI (DMS 273 small cell lung): > 62.1 µM | TGI (EKVX NSCLC): 18.8 µM | TGI (HCC-2998 colon): 16.8 µM | TGI (HCT-116 colon): 22.2 µM | TGI (HCT-15 colon): 17.7 µM | TGI (HOP-18 NSCLC): > 100 µM | TGI (HOP-62 NSCLC): 18.2 µM | TGI (HOP-92 NSCLC): 24.3 µM | TGI (HT29 colon): > 38.8 µM | TGI (IGROV1 ovarian): > 76.4 µM | TGI (K-562 leukemia): > 100 µM | TGI (KM12 colon): 31.4 µM | TGI (KM20L2 colon): 44.1 µM | TGI (LOX IMVI melanoma): 19 µM | TGI (LXFL 529 NSCLC): 10.9 µM | TGI (M14 melanoma): 17.1 µM | TGI (M19-MEL melanoma): 19.7 µM | TGI (MALME-3M melanoma): 27.1 µM | TGI (MOLT-4 leukemia): > 100 µM | TGI (NCI-H226 lung): 39.7 µM | TGI (NCI-H23 lung): 11.9 µM | TGI (NCI-H460 lung): 20.7 µM | TGI (NCI-H522 lung): 34.2 µM | TGI (OVCAR-3 ovarian): 51.7 µM | TGI (OVCAR-4 ovarian): 77.9 µM | TGI (OVCAR-5 ovarian): > 94.9 µM | TGI (OVCAR-8 ovarian): 20.3 µM | TGI (RPMI-8226 leukemia): > 21.2 µM | TGI (SF-268 CNS): 28.1 µM | TGI (SF-295 CNS): 27.6 µM | TGI (SF-539 CNS): 15.4 µM | TGI (SK-MEL-2 melanoma): 16.1 µM | TGI (SK-MEL-28 melanoma): 22.4 µM | TGI (SK-MEL-5 melanoma): 6.6 µM | TGI (SK-OV-3 ovarian): > 100 µM | TGI (SN12C renal): 17.9 µM | TGI (SNB-19 CNS): 67.3 µM | TGI (SNB-75 CNS): > 48.3 µM | TGI (SNB-78 CNS): 58.9 µM | TGI (SR leukemia): 6.52 µM | TGI (SW-620 colon): 10.6 µM | TGI (TK-10 renal): 38.4 µM | TGI (U251 CNS): 9.09 µM | TGI (UACC-257 melanoma): 17 µM | TGI (UACC-62 melanoma): 15.1 µM | TGI (UO-31 renal): 16.2 µM | TGI (XF 498 CNS): 26.9 µM

O=C1[C@H]2ON(c3ccccc3)C(c3ccc(Cl)cc3)[C@H]2C(=O)N1c1ccc(Cc2ccc(N3C(=O)[C@@H]4ON(c5ccccc5)C(c5ccc(Cl)cc5)[C@@H]4C3=O)cc2)cc1 (some centres undefined)
TGI (786-0 renal): > 100 µM | TGI (A498 renal): > 100 µM | TGI (A549 NSCLC): > 100 µM | TGI (ACHN renal): > 100 µM | TGI (CAKI-1 renal): > 100 µM | TGI (CCRF-CEM leukemia): > 100 µM | TGI (COLO 205 colon): > 100 µM | TGI (DLD-1 colon): > 100 µM | TGI (DMS 114 small cell lung): > 100 µM | TGI (DMS 273 small cell lung): > 100 µM | TGI (EKVX NSCLC): > 100 µM | TGI (HCC-2998 colon): > 100 µM | TGI (HCT-116 colon): > 100 µM | TGI (HCT-15 colon): > 100 µM | TGI (HL-60(TB) leukemia): > 100 µM | TGI (HOP-18 NSCLC): > 100 µM | TGI (HOP-62 NSCLC): > 100 µM | TGI (HT29 colon): > 100 µM | TGI (IGROV1 ovarian): > 100 µM | TGI (K-562 leukemia): > 100 µM | TGI (KM12 colon): > 100 µM | TGI (KM20L2 colon): > 100 µM | TGI (LOX IMVI melanoma): > 100 µM | TGI (LXFL 529 NSCLC): > 100 µM | TGI (M14 melanoma): 66.8 µM | TGI (M19-MEL melanoma): > 100 µM | TGI (MALME-3M melanoma): > 100 µM | TGI (MOLT-4 leukemia): > 100 µM | TGI (NCI-H226 lung): > 100 µM | TGI (NCI-H23 lung): > 100 µM | TGI (NCI-H460 lung): > 100 µM | TGI (NCI-H522 lung): > 100 µM | TGI (OVCAR-3 ovarian): > 100 µM | TGI (OVCAR-4 ovarian): > 100 µM | TGI (OVCAR-5 ovarian): > 100 µM | TGI (OVCAR-8 ovarian): > 100 µM | TGI (RPMI-8226 leukemia): > 100 µM | TGI (RXF 393 renal): > 100 µM | TGI (RXF-631 renal): > 100 µM | TGI (SF-268 CNS): > 100 µM | TGI (SF-295 CNS): > 100 µM | TGI (SF-539 CNS): > 100 µM | TGI (SK-MEL-2 melanoma): > 100 µM | TGI (SK-MEL-28 melanoma): > 100 µM | TGI (SK-MEL-5 melanoma): > 100 µM | TGI (SK-OV-3 ovarian): > 100 µM | TGI (SN12C renal): > 100 µM | TGI (SNB-19 CNS): > 100 µM | TGI (SNB-75 CNS): > 100 µM | TGI (SNB-78 CNS): > 100 µM | TGI (SR leukemia): > 100 µM | TGI (SW-620 colon): > 100 µM | TGI (TK-10 renal): > 100 µM | TGI (U251 CNS): > 100 µM | TGI (UACC-257 melanoma): > 100 µM | TGI (UACC-62 melanoma): > 100 µM | TGI (UO-31 renal): > 100 µM

O=C1OC2(OC2c2ccccc2)c2ccccc21 (centres undefined)
TGI (786-0 renal): > 100 µM | TGI (A549 NSCLC): > 100 µM | TGI (ACHN renal): > 100 µM | TGI (CCRF-CEM leukemia): > 100 µM | TGI (COLO 205 colon): > 100 µM | TGI (DLD-1 colon): > 100 µM | TGI (DMS 114 small cell lung): 11 µM | TGI (DMS 273 small cell lung): > 100 µM | TGI (EKVX NSCLC): > 100 µM | TGI (HCC-2998 colon): > 100 µM | TGI (HCT-116 colon): > 100 µM | TGI (HCT-15 colon): > 100 µM | TGI (HL-60(TB) leukemia): > 100 µM | TGI (HOP-62 NSCLC): > 100 µM | TGI (HOP-92 NSCLC): > 100 µM | TGI (HT29 colon): > 100 µM | TGI (IGROV1 ovarian): > 100 µM | TGI (K-562 leukemia): > 100 µM | TGI (KM12 colon): > 100 µM | TGI (KM20L2 colon): > 100 µM | TGI (LOX IMVI melanoma): > 100 µM | TGI (LXFL 529 NSCLC): > 100 µM | TGI (M14 melanoma): > 100 µM | TGI (M19-MEL melanoma): > 100 µM | TGI (MALME-3M melanoma): > 100 µM | TGI (MOLT-4 leukemia): > 100 µM | TGI (NCI-H226 lung): > 100 µM | TGI (NCI-H23 lung): > 100 µM | TGI (NCI-H460 lung): > 100 µM | TGI (NCI-H522 lung): > 100 µM | TGI (OVCAR-3 ovarian): > 100 µM | TGI (OVCAR-5 ovarian): > 100 µM | TGI (OVCAR-8 ovarian): > 100 µM | TGI (RPMI-8226 leukemia): > 100 µM | TGI (RXF 393 renal): > 100 µM | TGI (SF-268 CNS): > 100 µM | TGI (SF-539 CNS): > 100 µM | TGI (SK-MEL-2 melanoma): > 100 µM | TGI (SK-MEL-28 melanoma): > 100 µM | TGI (SK-MEL-5 melanoma): > 100 µM | TGI (SK-OV-3 ovarian): > 100 µM | TGI (SN12C renal): > 100 µM | TGI (SNB-19 CNS): > 100 µM | TGI (SNB-75 CNS): > 100 µM | TGI (SR leukemia): > 100 µM | TGI (SW-620 colon): > 100 µM | TGI (TK-10 renal): > 100 µM | TGI (U251 CNS): > 100 µM | TGI (UACC-257 melanoma): > 100 µM | TGI (UACC-62 melanoma): > 100 µM | TGI (UO-31 renal): > 100 µM | TGI (XF 498 CNS): > 100 µM

— PubChem BioAssay (NCI)
